Test results reported in patent US20210087248A1, “MODIFIED FIBROBLAST GROWTH FACTOR 1 (FGF-1) POLYPEPTIDES WITH INCREASED BINDING AFFINITY FOR HEPARIN AND ASSOCIATED METHODS” (Florida State University Research Foundation, Inc., priority 2014, published 2021).

How the values were obtained:
Test in all cases: Heparin affinity study with isothermal titration calorimetry (ITC), sucrose octasulfate titration
Type in all cases: binding
Conditions in all cases: 25 °C
[1] = target: human FGF-1 wild-type, no histag (no histag FGF wild-type), SEQ ID NO: 1 (Homo sapiens, UniProt P05230)
[2] = target: T1, human FGF-1 variant S116K (Ser116Lys), N-terminal six His tag (hisFGF S116K), SEQ ID NO: 3 (Homo sapiens, UniProt P05230, S131K)
T1 construct: six His tag (N); made in house; host or cells: E. coli BL21(DE3), pET21a (+)
Description: (§1) A codon-optimized synthetic gene encoding 140 amino acids form of human FGF-1 (SEQ ID NO: 1) with an N-terminal six His tag was cloned into the pET21a (+) expression vector. The His tag has shown no influence upon stability, heparin affinity and mitogenic activity. Residue Ser116 inside of the heparin binding site of FGF-1 was mutated to Arginine (SEQ ID NO: 2) and Lysine (SEQ ID NO: 3) individually to increase potential ionic interactions with the sulfonate groups in HSGAG. This was achieved using a QUICKCHANGE site-directed mutagenesis protocol.
(§2) Each mutation was confirmed by DNA sequencing. The pET21a (+)/BL21(DE3) E. coli host expression system was used to express the FGF-1 heparin affinity mutants. The expressed polypeptide was purified via sequential nickel-nitrilotriacetic acid (Ni-NTA) column (Qiagen) and heparin Sepharose resin (GE Life Sciences, Pittsburgh Pa.). Previous studies of wild-type FGF-1 have shown that the above purification procedure results in protein >99% pure and appropriate for all biophysical studies.
(§3) Purified modified FGF-1 samples of SEQ ID NOs: 2 and 3 were dialyzed into 20 mM N-(2-acetamido) iminodiacetic acid (ADA), 100 mM NaCl, pH 7.4 for an ITC study. An iTC200 microcalorimeter (MicroCal) was used for data collection. […] The ITC running parameters were: 31 injections; first injection volume 0.5 μl and the rest of the injections 1 μl; temperature 25° C.; reference power 5. The titration curve after baseline subtraction was fitted with a single ligand-binding site model by manufacturer's software (MicroCal Origin). At least three independent trials were collected for each modified FGF-1 samples.

[3] = target: T2, human FGF-1 variant S116R (Ser116Arg), N-terminal six His tag (hisFGF S116R), SEQ ID NO: 2 (Homo sapiens, UniProt P05230, S131R)
T2 construct: six His tag (N); made in house; host or cells: E. coli BL21(DE3), pET21a (+)
Description: as §1, §2, §3

[4] = target: T3, human FGF-1 wild-type, 140 amino acid form, N-terminal six His tag (hisFGF wild-type), SEQ ID NO: 1 (Homo sapiens, UniProt P05230)
T3 construct: six His tag (N); made in house; host or cells: pET21a(+) vector; E. coli BL21(DE3) is stated for the mutants, inferred for the wild type

[5] = single ligand-binding site model

T1 sequence (P05230 16-155 S131K): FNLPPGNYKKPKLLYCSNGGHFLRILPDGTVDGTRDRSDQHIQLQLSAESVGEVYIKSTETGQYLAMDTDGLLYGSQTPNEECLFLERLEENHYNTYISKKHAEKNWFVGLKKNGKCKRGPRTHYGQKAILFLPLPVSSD
T2 sequence (P05230 16-155 S131R): as the sequence (P05230 16-155 S131K) above, with K116R counted along it
Chain of human FGF-1 wild-type, no histag (no histag FGF wild-type), SEQ ID NO: 1 (P05230 16-155 limits assumed): as the sequence (P05230 16-155 S131K) above, with K116S counted along it
T3 sequence (P05230 16-155): as the sequence (P05230 16-155 S131K) above, with K116S counted along it

Kd ([1]; 20 mM ADA, 100 mM NaCl, pH 7.4): 3.85 ± 0.09 µM
ΔH ([1]; pH 7.4): (−6963) ± 65 cal/mol
ΔS ([1]; pH 7.4): 1.42 ± 0.18 cal/mol/deg
N (site) [1, 5]: 0.980 ± 0.035
Kd ([2]; 20 mM ADA, 100 mM NaCl, pH 7.4): 3.1 ± 0.47 µM
ΔH ([2]; pH 7.4): (−3339) ± 57 cal/mol
ΔS ([2]; pH 7.4): (−6.42) ± 3.04 cal/mol/deg
N (site) [2, 5]: 1.012 ± 0.014
Kd ([3]; 20 mM ADA, 100 mM NaCl, pH 7.4): 2.46 ± 0.25 µM
ΔH ([3]; pH 7.4): (−7081) ± 217 cal/mol
ΔS ([3]; pH 7.4): 1.84 ± 0.92 cal/mol/deg
N (site) [3, 5]: 0.942 ± 0.036
Kd ([4]; 20 mM ADA, 100 mM NaCl, pH 7.4): 3.94 ± 0.19 µM
ΔH ([4]; pH 7.4): (−7506) ± 95 cal/mol
ΔS ([4]; pH 7.4): (−0.44) ± 0.23 cal/mol/deg
N (site) [4, 5]: 0.917 ± 0.050
Structure (SMILES): O=S(=O)(O)OC[C@H]1O[C@@](COS(=O)(=O)O)(O[C@H]2O[C@H](COS(=O)(=O)O)[C@@H](OS(=O)(=O)O)[C@H](OS(=O)(=O)O)[C@H]2OS(=O)(=O)O)[C@@H](OS(=O)(=O)O)[C@@H]1OS(=O)(=O)O [sucrose octasulfate]
